From ChEMBL document CHEMBL4428131, “Scaffold-hopping from xanthines to tricyclic guanines: A case study of dipeptidyl peptidase 4 (DPP4) inhibitors” (Bioorg Med Chem, 2016)

How the values were obtained:
Prolyl endopeptidase FAP = target: T1, Prolyl endopeptidase FAP (Homo sapiens, UniProt Q12884); assay: Inhibition of FAP (unknown origin) using Nle-Pro-AMC as substrate preincubated for 20 mins followed by substrate addition measured after 40 mins by fluorescence assay
T1 sequence (Q12884 whole entry): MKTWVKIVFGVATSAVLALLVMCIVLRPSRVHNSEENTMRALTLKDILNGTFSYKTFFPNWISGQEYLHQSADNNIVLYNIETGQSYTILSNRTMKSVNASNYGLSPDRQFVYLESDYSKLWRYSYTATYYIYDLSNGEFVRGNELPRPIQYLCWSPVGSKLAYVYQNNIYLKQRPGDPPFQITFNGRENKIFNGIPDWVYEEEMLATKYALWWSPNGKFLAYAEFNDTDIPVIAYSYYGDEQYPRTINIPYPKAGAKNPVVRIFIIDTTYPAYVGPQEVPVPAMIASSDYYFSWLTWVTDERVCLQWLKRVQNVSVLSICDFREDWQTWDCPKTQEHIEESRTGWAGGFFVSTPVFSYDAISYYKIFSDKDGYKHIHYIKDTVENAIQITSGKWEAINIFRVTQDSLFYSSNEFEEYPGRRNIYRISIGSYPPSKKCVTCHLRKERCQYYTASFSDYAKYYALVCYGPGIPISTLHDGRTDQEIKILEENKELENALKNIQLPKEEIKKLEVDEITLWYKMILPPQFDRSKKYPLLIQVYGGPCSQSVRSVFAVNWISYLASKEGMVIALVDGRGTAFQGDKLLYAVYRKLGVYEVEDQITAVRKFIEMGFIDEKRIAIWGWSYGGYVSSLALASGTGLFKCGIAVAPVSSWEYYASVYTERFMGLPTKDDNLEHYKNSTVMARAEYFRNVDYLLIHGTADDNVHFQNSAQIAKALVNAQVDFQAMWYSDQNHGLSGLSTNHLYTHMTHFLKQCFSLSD

Dipeptidyl peptidase 4 = Dipeptidyl peptidase 4 (Homo sapiens, UniProt P27487); assay: Inhibition of DPP4 (unknown origin) using Gly-Pro-AMC as substrate preincubated for 30 mins followed by substrate addition measured after 50 mins by fluorescence assay
Chain of Dipeptidyl peptidase 4 (P27487 whole entry): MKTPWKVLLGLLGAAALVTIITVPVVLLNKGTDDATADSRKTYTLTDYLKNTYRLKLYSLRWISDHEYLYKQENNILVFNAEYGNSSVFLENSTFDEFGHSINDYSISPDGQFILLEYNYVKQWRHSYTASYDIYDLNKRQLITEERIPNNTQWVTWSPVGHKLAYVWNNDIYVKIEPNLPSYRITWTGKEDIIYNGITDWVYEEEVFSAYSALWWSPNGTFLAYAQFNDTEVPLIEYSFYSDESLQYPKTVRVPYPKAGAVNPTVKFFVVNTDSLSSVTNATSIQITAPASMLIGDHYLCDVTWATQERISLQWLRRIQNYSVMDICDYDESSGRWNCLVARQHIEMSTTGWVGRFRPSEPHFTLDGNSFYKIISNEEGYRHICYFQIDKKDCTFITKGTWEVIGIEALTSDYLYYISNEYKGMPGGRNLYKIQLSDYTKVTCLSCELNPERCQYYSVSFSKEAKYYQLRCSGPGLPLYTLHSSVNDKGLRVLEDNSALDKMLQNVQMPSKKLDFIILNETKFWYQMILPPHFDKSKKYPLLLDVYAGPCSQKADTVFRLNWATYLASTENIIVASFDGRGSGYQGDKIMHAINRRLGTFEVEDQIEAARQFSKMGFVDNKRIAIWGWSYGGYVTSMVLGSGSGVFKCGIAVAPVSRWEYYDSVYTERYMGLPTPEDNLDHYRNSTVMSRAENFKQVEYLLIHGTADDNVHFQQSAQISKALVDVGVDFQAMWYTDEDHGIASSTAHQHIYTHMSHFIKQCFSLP

| Structure (SMILES) | IC50 (Prolyl endopeptidase FAP) | IC50 (Dipeptidyl peptidase 4) |
| --- | --- | --- |
| CC#CCn1c(N2CCC[C@@H](N)C2)nc2c1C(=O)N(Cc1cccc(C#N)c1)C1=NCCN12 | 78.5 µM |  |
| CC#CCn1c(N2CCC[C@@H](N)C2)nc2c1C(=O)N(CCCc1ccccc1)C1=NCCCN12 |  | > 10 µM |
| CC#CCn1c(N2CCC[C@@H](N)C2)nc2c1C(=O)N(Cc1ccccc1C#N)C1=NCCN12 | > 100 µM |  |
| Cc1nc(CN2C(=O)c3c(nc(N4CCC[C@@H](N)C4)n3CC3CCC3)N3CCN=C23)nc2ccccc12 | 3.05 µM |  |
| Cc1nc(CN2C(=O)c3c(nc(N4CCC[C@@H](N)C4)n3CC(=O)C3CC3)N3CCN=C23)nc2ccccc12 | 0.107 µM |  |
| Cc1nc(CN2C(=O)c3c(nc(N4CCC[C@@H](N)C4)n3Cc3ccccc3)N3CCN=C23)nc2ccccc12 | 4.64 µM |  |
| CC#CCn1c(N2CCC[C@@H](N)C2)nc2c1C(=O)N(Cc1ccc(C#N)cc1)C1=NCCN12 | 88.3 µM |  |
| CC#CCn1c(N2CCC[C@@H](N)C2)nc2c1C(=O)N(Cc1cccc3ccccc13)C1=NCCCN12 | 22.4 µM |  |
| CC(C)=CCn1c(N2CCC[C@@H](N)C2)nc2c1C(=O)N(Cc1nc(C)c3ccccc3n1)C1=NCCN12 | 0.755 µM |  |
| Cc1nc(CN2C(=O)c3c(nc(N4CCC[C@@H](N)C4)n3Cc3cccc(F)c3)N3CCN=C23)nc2ccccc12 | 4.62 µM |  |
| CC#CCn1c(N2CCC[C@@H](N)C2)nc2c1C(=O)N(Cc1ccc(OC)cc1)C1=NCCCN12 | > 50 µM |  |
| CC#CCn1c(N2CCC[C@@H](N)C2)nc2c1c(=O)nc1n2CCCN1CCCc1ccccc1 |  | > 10 µM |
| Cc1nc(CN2C(=O)c3c(nc(N4CCC[C@@H](N)C4)n3CC3CC3)N3CCN=C23)nc2ccccc12 | 3.12 µM |  |
| Cc1nc(CN2C(=O)c3c(nc(N4CCC[C@@H](N)C4)n3Cc3ccccc3C#N)N3CCN=C23)nc2ccccc12 | 15.3 µM |  |
| Cc1nc(CN2C(=O)c3c(nc(N4CCC[C@@H](N)C4)n3CC3CC3(F)F)N3CCN=C23)nc2ccccc12 (stereo partly drawn) | 14.7 µM |  |
| CC#CCn1c(N2CCC[C@@H](N)C2)nc2c1C(=O)N(Cc1nc(C)c3ccccc3n1)C1=NCCN12 | 0.367 µM |  |
| Cc1nc(CN2C(=O)c3c(nc(N4CCC[C@@H](N)C4)n3Cc3cc(F)ccc3F)N3CCN=C23)nc2ccccc12 | 9.92 µM |  |
| CC#CCn1c(N2CCC[C@@H](N)C2)nc2c1C(=O)N(Cc1nc(C)c3ccccc3n1)C1=NCCCN12 | 0.268 µM |  |
